The text below walks through data of patent US20210079476A1, “BIOMARKERS OF RENAL OSTEODYSTROPHY TYPE” (The Trustees of Columbia University in the City of New York, priority 2018, published 2021).

One experiment has as its system Cy/+ (CKD) rat. As to conditions: Cy/+ CKD rat model; cited from earlier work.
In experiment [1] the test system is miRNA 30b, 30c, 125b and 155. In kind it is in vivo, rat. Particulars: CKD rats. The text has this:
(§1) The Cy/+ rat model of CKD was used to assess bone expression of miRNAs. Cy/+ rats are characterized by an autosomal dominant progressive cystic kidney disease that is […] with human ADPKD(63). […] The Cy/+IU colony of rats has been bred for nearly 20 years. The model recapitulates CKD-MBD with progressive kidney disease, hyperphosphatemia, secondary hyperparathyroidism, elevated FGF-23, resulting in ROD and vascular calcification. Importantly, the slowly progressive nature of the model allows for examination of interventions that differentially affect bone remodeling. […] In brief, CKD animals (n=8-10 each group) began treatment at 25 weeks for a total of 10 weeks and received 1) no treatment (control CKD=high PTH/high turnover, 2) 3% calcium in the drinking water (CKD/Ca group=low PTH/low turnover), or 3) a single injection of zoledronic acid (CKD/Zol group=high PTH/low turnover). At 35 weeks of age, animals were euthanized and bone tissue were collected. Bone histomorphometry as previously reported (67). RNA was isolated from tibia and bone miRNA expression determined by real time PCR using TaqMan miRNA assay as above.
The Cy/+ rat model of CKD was used to assess bone expression of miRNAs. […] The Cy/+IU colony of rats has been bred at Indiana University for nearly 20 years. The model recapitulates CKD-MBD with progressive kidney disease, hyperphosphatemia, secondary hyperparathyroidism, elevated FGF-23, resulting in ROD and vascular calcification. Importantly, the slowly progressive nature of the model allows for examination of interventions that differentially affect bone remodeling. Specifically, we have induced low turnover bone remodeling by two methods: with calcium in the drinking water (calcium binders) and zoledronic acid.^41, 42 In brief, CKD animals (n=8 to 10 each group) began treatment at 25 weeks for a total of 10 weeks and received: (i) no treatment (control CKD=high PTH/high turnover; (ii) 3% calcium in the drinking water (CKD/Ca group=low PTH/low turnover); or (iii) a single injection of 20 μg/kg of zoledronic acid (CKD/Zol group=high PTH/low turnover). At 35 weeks of age, animals were euthanized and bone tissue was collected. Bone histomorphometry was performed as previously reported.^43 RNA was isolated from tibia, and bone miRNA expression was determined by real-time PCR using TaqMan miRNA assay as described above. All procedures were reviewed and approved by the Indiana University School of Medicine Institutional Animal Care and Use Committee.

The subject of experiment [2] is CKD rats (Cy/+). Particulars: Cy/+ rat model; cited from earlier work.
Experiment [3] has as its system CKD rats (Cy/+). Nature of the experiment: Cy/+ rat model of CKD: bone turnover by histomorphometry after treatment. In kind it is in vivo.
Description: as §1
The Cy/+ rat model of CKD was used to assess bone expression of miRNAs. […] The Cy/+IU colony of rats has been bred at Indiana University for nearly 20 years. […]

“Also recorded” adds a separate entry of the source.

Consider `C=C1/C(=C\C=C2/CCC[C@]3(C)[C@@H]([C@H](C)CCCC(C)(C)O)CC[C@@H]23)C[C@@H](O)C[C@@H]1O` [Calcitriol], for which, in the experiment on Cy/+ (CKD) rat, the suppressing bone turnover entry is on record as “not effective”.
Turning to `[Ca+2]` [calcium], in experiment [1] (bone tissue), the “levels of miRNAs, low turnover induced by dietary calcium compared with zoledronic acid” value was “did not differ”. For the same compound, in experiment [1] (tibia, 35 weeks of age), the “bone-tissue expression of miRNA-30b vs rats with high turnover” value was “low expression; also recorded: lower”, the “bone-tissue expression of miRNA-30c vs rats with high turnover” value is “low expression; also recorded: lower”, the “bone-tissue expression of miRNA-125b vs rats with high turnover” value is recorded as “low expression; also recorded: lower” and the “bone-tissue expression of miRNA-155 vs rats with high turnover” value is on record as “low expression; also recorded: lower”. Further, the “induction of low turnover bone remodeling” value in the experiment on CKD rats (Cy/+) [2] is recorded as “low turnover bone remodeling has been induced”. Besides, the “PTH status of the treated group” value with CKD rats (Cy/+) [3] (same treatment groups, untreated CKD = high PTH) is “low PTH”. Moreover, the “type of bone turnover induced by the intervention (histomorphometry)” value in the experiment on CKD rats (Cy/+) [3] (treatment from 25 weeks of age for 10 weeks, 3% calcium in drinking water or single injection of zoledronic acid, untreated CKD = high turnover) is recorded as “low turnover”.
